# In US11497788B2, “Supramolecular glycosaminoglycans” (Northwestern University, priority 2015, dated 2022):
# “Also recorded” adds a separate entry of the source. Residues, ends and D or L forms follow the SMILES beside them. Groups on a side chain read outwards from the residue. *: point of attachment. X1 = CC(=O)NC1C(O)[C@H](O)C(COS(=O)(=O)O)O[C@H]1OCCn1cc(CCC(=O)*)nn1; X2 = O=C(O)C1O[C@@H](OCCn2cc(CCC(=O)*)nn2)C(O)C(O)[C@@H]1O; Acetyl(2-(HOCH2CH2OCH2CH2O)) = O=C(COCCOCCO)*; AEEA = NCCOCCOCC(=O)O; Propionyl = CCC(=O)*
# Tests used:
# BMP-4 = molecular target: T1, BMP-4 (Homo sapiens, UniProt P12644); test: SPR binding to BMP-4; settings: azide-derivative, not assembled
# T1 construct: from E. coli were purchased from PeproTech, in their mature forms; purchased PeproTech; host or cells: E. coli
# T1 sequence (P12644 293-408): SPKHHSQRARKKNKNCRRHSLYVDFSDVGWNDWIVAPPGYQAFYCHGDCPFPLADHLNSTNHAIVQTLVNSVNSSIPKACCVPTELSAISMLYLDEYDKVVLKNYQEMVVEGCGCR
# Procedure: (§1) Surface Plasmon Resonance: The binding interactions between PAs (analytes) and growth factors (ligands) were analyzed via surface plasmon resonance (SPR) using a ProteON XPR36 system (Bio-Rad Laboratories). PA samples were thermally annealed as described for Cryo-TEM. PA solutions were spun down, pipetted for homogeneous mixing, and sequentially diluted to appropriate concentrations using Tween buffer (Milli-Q water, 0.05% Tween-20). Lyophilized powders of GFs were reconstituted to 5 μM without any carrier proteins according to the manufacturer's instructions. BMP-2, BMP-4, Shh, VEGF, and FGF-2 were further diluted to 200 nM in ProteOn Acetate Buffer pH 5.5, while FGF-1 was diluted to 200 nM in ProteOn Acetate Buffer pH 4.5. Noggin was diluted to 300 nM in ProteOn Acetate Buffer pH 5.5.
# (§2) GFs were immobilized on a ProteOn GLC-Chip via amino coupling as described previously, with slight modifications (37). First, the alginate surface was activated with a freshly prepared mixture of 20 mM 1-Ethyl-3-[3-dimethylaminopropyl]carbodiimide hydrochloride (EDC) and 5 mM N-hydroxysulfosuccinimide (Sulfo-NHS) in Milli-Q water (vertical flow cells, 30 μL/min, 3 min). […] Interaction data were evaluated using the BIAEvaluation 4.1 software. […]
# BMP-2 [1] = molecular target: T2, BMP-2 (Homo sapiens, UniProt P12643); test: SPR binding to BMP-2; settings: azide-derivative, not assembled
# T2 construct: purchased Medtronic Sofamor Danek (Minneapolis, Minn.)
# T2 sequence (P12643 283-396): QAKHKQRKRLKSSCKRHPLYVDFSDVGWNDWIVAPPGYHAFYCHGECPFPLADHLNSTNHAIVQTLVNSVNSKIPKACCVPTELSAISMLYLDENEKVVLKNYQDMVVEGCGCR
# Procedure: as §1, §2
# [2] = test system: BMP-2 signaling in C2C12 cells; test: C2C12 osteoblast differentiation with BMP-2, alkaline phosphatase (ALP) activity; format: cell-based, mouse; settings: for effect on BMP-2 activity / osteoblast differentiation (in words) / level of ALP expression relative to BMP-2 alone (factor): C2C12, BMP-2 75 ng/mL
# Procedure: (§3) C2C12 Cell Culture: C2C12 mouse myoblasts (ATCC) were maintained in Dulbecco's Modified Eagle's Medium with high glucose and L-glutamine (DMEM, ATCC), supplemented with 100 U/mL of penicillin and 100 μg/mL streptomycin (P/S, Life Technologies) and 10% heat inactivated FBS (Life Technologies), and passaged at 80-90% confluence. Media was changed every 2 days. Passages 3 to 8 were used for experiments. Cells were grown at 37° C., 5% CO2 in a humidified atmosphere. Cells were detached following a 3 minute incubation at 37° C. with 0.05% Trypsin-EDTA (Life Technologies), then resuspended in DMEM (10% FBS). Unless stated otherwise, cells were seeded at 75,000 cells/mL (400 μL/well in a 48-well plate), and allowed to attach for a minimum of 3 hours prior to experiments.
# C2C12 Osteoblast Differentiation: PA samples were thermally annealed as described for Cryo-TEM. PA solutions were spun down, pipetted for homogeneous mixing, then diluted to 1 mM with DMEM (no FBS). In a 1.5 mL microcentrifuge tube, PA solutions were further diluted with DMEM (5% FBS), gently vortexed, and appropriate amounts of GFs (20 μg/mL) were added to yield [PA]=125 μM and [GF]=375 ng/mL. For mixing, the microcentrifuge tube was gently inverted several times by hand. Following, cells were treated by adding a 100 μl, of the PA/GF mixture per well (48-well plate), yielding a final 500 μl, differentiation medium with [PA]=25 μM and [GF]=75 ng/mL. For controls, the initial 5 mM PA solution was substituted with either PBS alone (saline) or heparin in PBS at appropriate concentrations. Cells were cultured for 3 days without changing the media, and osteoblast differentiation was assessed.
# Alkaline Phosphatase Activity: Alkaline phosphatase (ALP) activity was measured as a marker of osteoblast differentiation (ref. 38; incorporated by reference in its entirety). On day 3, media was removed, and cells were lysed with a 100 μL, of M-PER Mammalian Protein Extraction Reagent (Life Technologies), supplemented with 1×Halt Protease Inhibitor Cocktail (Thermo Fisher Scientific), for 30 minutes on an orbital shaker. A 20 μL, volume of the cell lysate was incubated with 200 μL, of the QUANTI-Blue colorimetric ALP assay (InvivoGen) for 30 minutes to 2 hours at 37° C., in duplicates. The ALP activity was assessed by reading the OD at 630 nm with Cytation3 microplate reader (BioTek). Data were normalized to the respective endogenous DNA levels using Quant-iT PicoGreen dsDNA Assay Kit (Life Technologies). Two separate experiments with 4 replicates each were averaged for statistical analysis. […]
# [3] = test system: BMP-4 signaling in C2C12 cells; test: C2C12 osteoblast differentiation with BMP-4, ALP activity; format: cell-based, mouse
# Procedure: as §3
# C2C12 Osteoblast Differentiation: PA samples were thermally annealed as described for Cryo-TEM. PA solutions were spun down, pipetted for homogeneous mixing, then diluted to 1 mM with DMEM (no FBS). […] Cells were cultured for 3 days without changing the media, and osteoblast differentiation was assessed.
# Alkaline Phosphatase Activity: Alkaline phosphatase (ALP) activity was measured as a marker of osteoblast differentiation (ref. 38; incorporated by reference in its entirety). […] The ALP activity was assessed by reading the OD at 630 nm with Cytation3 microplate reader (BioTek). […]
# [4] = test system: BMP-2, BMP-4, noggin, Shh, VEGF, FGF-1, FGF-2; test: Surface plasmon resonance (SPR) binding to immobilized heparin binding GFs; design: species or system human (Noggin murine); settings: analytes 50-500 nM; GFs immobilized on alginate surface; 25° C.
# Procedure: as §1
# GFs were immobilized on a ProteOn GLC-Chip via amino coupling as described previously, with slight modifications (37). First, the alginate surface was activated with a freshly prepared mixture of 20 mM 1-Ethyl-3-[3-dimethylaminopropyl]carbodiimide hydrochloride (EDC) and 5 mM N-hydroxysulfosuccinimide (Sulfo-NHS) in Milli-Q water (vertical flow cells, 30 μL/min, 3 min). Following, GFs were immobilized on vertical flow cells 1 to 5 by perfusing a freshly prepared 200 nM (or 300 nM) solution over the activated alginate surface (30 μL/min, 5 min). Blank buffer was perfused on vertical cell 6 as a reference. The remaining esters were deactivated with 1 M ethanolamine (30 μL/min, 3 min). The association and dissociation phases were performed at 25° C. in Tween buffer. Prior to each analyte injection, the horizontal flow cells 1 to 6 were regenerated with 10 mM NaOH (100 μL/min, 30 sec) and washed once with Tween buffer (30 μL/min, 3 min). Varied analyte concentrations were injected to horizontal flow cells 1 to 5, with flow cell 6 as a reference (30 μL/min, 5 min), followed by dissociation with Tween buffer (30 μL/min, 10 min). For analysis, SPR sensorgram from the reference flow cell was subtracted from all measurement flow cells. Interaction data were evaluated using the BIAEvaluation 4.1 software. […]
# BMP-2 [5] = molecular target: T2, BMP-2; test: BMP-2 stability assay (ELISA) in C2C12 culture; format: cell-based; settings: 75 ng/mL BMP-2; 0, 3, 9, 24 h
# Procedure: BMP-2 Stability Assay: C2C12 cells were seeded at 150,000 cells/mL (500 μL/well in a 48-well plate) and incubated overnight. Following, the media was replaced with treatment media (75 ng/mL BMP-2 in the presence/absence of PA 1, PA 4, and monosaccharide 1. The media was collected at 0, 3, 9, and 24 h and stored at −80° C. prior to BMP-2 quantification. In addition, the cell monolayers were lysed at the indicated time with a 100 μL of M-PER Mammalian Protein Extraction Reagent, supplemented with 1×Halt Protease Inhibitor Cocktail, and also stored at −80° C. prior to BMP-2 quantification. The amount of BMP-2 present in the media and cell extracts was assayed using a BMP-2 Quantikine ELISA kit (R&D Systems) according to the manufacturer's specifications.
# [6] = Zeta potential measurements; format: physicochemical
# Procedure: Zeta Potential Measurements: Zeta (ζ) potential was measured using a Malvern Zetasizer Nano ZS (n=3). PA samples were thermally annealed as described for Cryo-TEM. Following, PAs were diluted to 0.5 mM in DMEM. PA solutions were water-bath sonicated for 1 min prior to zeta potential measurement. Background reading from DMEM alone was subtracted from the final measurements.
molecule,measurement,setting,value
"2-Azidoethyl 2-acetamido-3,4,6-tri-O-sulfo-2-deoxy-β-D-glycopyranoside [monosaccharide 1]",binding to BMP-4 (SPR),BMP-4,bound neither
same,binding to BMP-2 (SPR),BMP-2 [1],bound neither
same,effect on BMP-2 activity / osteoblast differentiation (in words),[2]; 3 days,not to be the case
same,amplification of BMP-4 signaling,[3],not to be the case
same,binding to heparin binding GFs (SPR),[4],essentially does not bind
same,BMP-2 stability in cell culture media,BMP-2 [5],not
"CCC(=O)N[C@H](C(=O)N[C@H](C(=O)N[C@@H](C)C(=O)N[C@@H](C)C(=O)N[C@@H](CCC(=O)O)C(=O)N[C@@H](CCC(=O)O)C(=O)N[C@@H](CCCCNC(=O)COCCOCCNC(=O)CCc1cn(CCO[C@@H]2OC(COS(=O)(=O)O)[C@@H](O)C(O)C2NC(C)=O)nn1)C(N)=O)C(C)C)C(C)C (stereo partly drawn) [PA 2, 6S-GlcNAc PA] (Propionyl-VVAAEEK([AEEA-X1])-NH2)",increase in BMP-2 signaling (ALP activity),"[2]; nanofibers containing the monosulfated monosaccharide, density not stated, 25 μM PA, BMP-2 75 ng/mL",3 fold
same,zeta potential / net charge of nanofibers,[6],comparable zeta potentials
"CCC(=O)N[C@H](C(=O)N[C@H](C(=O)N[C@@H](C)C(=O)N[C@@H](C)C(=O)N[C@@H](CCC(=O)O)C(=O)N[C@@H](CCC(=O)O)C(=O)N[C@@H](CCCCNC(=O)COCCOCCNC(=O)CCc1cn(CCO[C@@H]2OC(C(=O)O)[C@@H](O)C(O)C2O)nn1)C(N)=O)C(C)C)C(C)C (stereo partly shown) [PA 3, GlcA PA] (Propionyl-VVAAEEK([AEEA-X2])-NH2)",effect on BMP-2 activity / osteoblast differentiation (in words),[2]; 3 days,did not potentiate
same,"ALP activity, PA co-assembled with PA 6","[2]; incorporated at the level of 10% or higher in PA 6, 25 μM PA, BMP-2 75 ng/mL",not to enhanced
same,zeta potential / net charge of nanofibers,[6],comparable zeta potentials
"CCC(=O)N[C@H](C(=O)N[C@H](C(=O)N[C@@H](C)C(=O)N[C@@H](C)C(=O)N[C@@H](CCC(=O)O)C(=O)N[C@@H](CCC(=O)O)C(=O)N[C@@H](CCCCNC(=O)COCCOCCO)C(N)=O)C(C)C)C(C)C [PA 5, OEG PA] (Propionyl-VVAAEEK(Acetyl(2-(HOCH2CH2OCH2CH2O)))-NH2)",effect on BMP-2 activity / osteoblast differentiation (in words),[2]; 3 days,negligible effect
same,zeta potential / net charge of nanofibers,[6],screened the net negative charge
"CCC(=O)N[C@H](C(=O)N[C@H](C(=O)N[C@@H](C)C(=O)N[C@@H](C)C(=O)N[C@@H](CCC(=O)O)C(=O)N[C@@H](CCC(=O)O)C(N)=O)C(C)C)C(C)C [PA 6, E2 PA] (Propionyl-VVAAEE-NH2)",increase in ALP activity,"[2]; PA 6 alone, 0% monosaccharide density, 25 μM PA, BMP-2 75 ng/mL, 3 days",5 fold
Heparan sulfate [reference compound],effect on BMP-2 activity / osteoblast differentiation (in words),[2]; 3 days,dose response increase
same,level of ALP expression relative to BMP-2 alone (factor),[2]; 3 days,3
heparin [reference compound],effect on BMP-2 activity / osteoblast differentiation (in words),[2]; 3 days,dose response increase; also recorded: more potent response than HS
same,level of ALP expression relative to BMP-2 alone (factor),[2]; 3 days,5
same,binding to heparin binding GFs (SPR),[4],moderate binding
